# Measured values as given in patent US20230257396A1, “MACROCYCLES AND THEIR USE” (BLOSSOMHILL THERAPEUTICS, INC., priority 2020, published 2023).
# Key:
# Test in all cases: KINOMEscan kinase binding assay (Eurofins/DiscoveRx), % Ctrl
# Settings in all cases: 1 μM
# [1] = target: T1, kinases (Homo sapiens, UniProt P10721, D816H)
# T1 construct: purchased Eurofins/DiscoveRx; host or cells: E. coli BL21-derived host (T7 phage display) for most kinases; HEK-293 for the rest
# Summary of the method: (§1)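 Read-out is qPCR of kinase eluted from ligand-coated streptavidin beads after 1 h room-temperature competition with test compound. Values are % Ctrl at the tested concentration, lower meaning tighter binding.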
# [2] = target: T2, kinases (Homo sapiens, UniProt P10721, L576P)
# T2 construct: purchased Eurofins/DiscoveRx; host or cells: E. coli BL21-derived host (T7 phage display) for most kinases; HEK-293 for the rest
# Summary of the method: as §1
# [3] = target: T3, kinases (Homo sapiens, UniProt P00533, DEL752-759)
# T3 construct: purchased Eurofins/DiscoveRx; host or cells: E. coli BL21-derived host (T7 phage display) for most kinases; HEK-293 for the rest
# Summary of the method: as §1
# [4] = target: T4, kinases (Homo sapiens, UniProt P00519, T315I)
# T4 construct: purchased Eurofins/DiscoveRx; host or cells: E. coli BL21-derived host (T7 phage display) for most kinases; HEK-293 for the rest
# Summary of the method: as §1
# [5] = target: T5, kinases (Homo sapiens, UniProt P36888, D835Y)
# T5 construct: purchased Eurofins/DiscoveRx; host or cells: E. coli BL21-derived host (T7 phage display) for most kinases; HEK-293 for the rest
# T5 sequence (P36888 27-993 D835Y): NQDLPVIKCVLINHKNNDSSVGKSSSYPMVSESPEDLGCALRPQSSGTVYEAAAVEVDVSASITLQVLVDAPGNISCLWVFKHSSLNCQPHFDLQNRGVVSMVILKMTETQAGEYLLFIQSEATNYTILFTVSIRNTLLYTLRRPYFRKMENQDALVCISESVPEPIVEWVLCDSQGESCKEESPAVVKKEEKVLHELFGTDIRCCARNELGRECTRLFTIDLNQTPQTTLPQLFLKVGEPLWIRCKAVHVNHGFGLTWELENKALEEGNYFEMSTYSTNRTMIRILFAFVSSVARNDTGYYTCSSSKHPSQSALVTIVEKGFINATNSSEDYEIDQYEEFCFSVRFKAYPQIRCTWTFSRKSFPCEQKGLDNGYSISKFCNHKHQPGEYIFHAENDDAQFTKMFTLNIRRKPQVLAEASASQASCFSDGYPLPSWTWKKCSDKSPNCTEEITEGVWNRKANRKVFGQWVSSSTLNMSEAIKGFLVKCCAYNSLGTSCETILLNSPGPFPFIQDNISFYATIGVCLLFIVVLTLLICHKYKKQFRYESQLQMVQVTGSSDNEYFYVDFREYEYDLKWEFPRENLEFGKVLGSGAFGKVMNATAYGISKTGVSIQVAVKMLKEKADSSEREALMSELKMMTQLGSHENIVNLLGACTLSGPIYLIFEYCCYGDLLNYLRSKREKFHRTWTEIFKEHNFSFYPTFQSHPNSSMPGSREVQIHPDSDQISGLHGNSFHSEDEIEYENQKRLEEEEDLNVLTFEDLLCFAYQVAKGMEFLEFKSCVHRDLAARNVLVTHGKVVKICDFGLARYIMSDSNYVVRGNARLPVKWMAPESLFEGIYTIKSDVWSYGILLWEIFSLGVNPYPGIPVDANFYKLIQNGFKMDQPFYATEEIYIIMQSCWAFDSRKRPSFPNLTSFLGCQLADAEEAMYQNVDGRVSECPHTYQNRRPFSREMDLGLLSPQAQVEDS
# Summary of the method: as §1
# [6] = target: T6, kinases (Homo sapiens, UniProt P00533, G719S)
# T6 construct: purchased Eurofins/DiscoveRx; host or cells: E. coli BL21-derived host (T7 phage display) for most kinases; HEK-293 for the rest
# Summary of the method: as §1
# [7] = target: T7, kinases (Homo sapiens, UniProt P07949, M918T)
# T7 construct: purchased Eurofins/DiscoveRx; host or cells: E. coli BL21-derived host (T7 phage display) for most kinases; HEK-293 for the rest
# Summary of the method: as §1
# [8] = target: T8, kinases (Homo sapiens, UniProt P16234)
# T8 construct: purchased Eurofins/DiscoveRx; host or cells: E. coli BL21-derived host (T7 phage display) for most kinases; HEK-293 for the rest
# Summary of the method: as §1
# [9] = target: T9, kinases (Homo sapiens, UniProt P00533, L858R)
# T9 construct: purchased Eurofins/DiscoveRx; host or cells: E. coli BL21-derived host (T7 phage display) for most kinases; HEK-293 for the rest
# Summary of the method: as §1
# [10] = target: T10, kinases (Homo sapiens, UniProt P00519, H396P)
# T10 construct: purchased Eurofins/DiscoveRx; host or cells: E. coli BL21-derived host (T7 phage display) for most kinases; HEK-293 for the rest
# Summary of the method: as §1
# [11] = target: T11, kinases (Homo sapiens, UniProt P00519, F317I)
# T11 construct: purchased Eurofins/DiscoveRx; host or cells: E. coli BL21-derived host (T7 phage display) for most kinases; HEK-293 for the rest
# Summary of the method: as §1
# [12] = target: T12, kinases (Homo sapiens, UniProt P09619)
# T12 construct: purchased Eurofins/DiscoveRx; host or cells: E. coli BL21-derived host (T7 phage display) for most kinases; HEK-293 for the rest
# Summary of the method: as §1
# [13] = target: T13, kinases (Homo sapiens, UniProt P10721, V559D)
# T13 construct: purchased Eurofins/DiscoveRx; host or cells: E. coli BL21-derived host (T7 phage display) for most kinases; HEK-293 for the rest
# Summary of the method: as §1
# [14] = target: T14, kinases (Homo sapiens, UniProt P00519, E255K)
# T14 construct: purchased Eurofins/DiscoveRx; host or cells: E. coli BL21-derived host (T7 phage display) for most kinases; HEK-293 for the rest
# Summary of the method: as §1
# [15] = target: T15, kinases (Homo sapiens, UniProt P07949)
# T15 construct: purchased Eurofins/DiscoveRx; host or cells: E. coli BL21-derived host (T7 phage display) for most kinases; HEK-293 for the rest
# Summary of the method: as §1
# T12 sequence (P09619 33-1106): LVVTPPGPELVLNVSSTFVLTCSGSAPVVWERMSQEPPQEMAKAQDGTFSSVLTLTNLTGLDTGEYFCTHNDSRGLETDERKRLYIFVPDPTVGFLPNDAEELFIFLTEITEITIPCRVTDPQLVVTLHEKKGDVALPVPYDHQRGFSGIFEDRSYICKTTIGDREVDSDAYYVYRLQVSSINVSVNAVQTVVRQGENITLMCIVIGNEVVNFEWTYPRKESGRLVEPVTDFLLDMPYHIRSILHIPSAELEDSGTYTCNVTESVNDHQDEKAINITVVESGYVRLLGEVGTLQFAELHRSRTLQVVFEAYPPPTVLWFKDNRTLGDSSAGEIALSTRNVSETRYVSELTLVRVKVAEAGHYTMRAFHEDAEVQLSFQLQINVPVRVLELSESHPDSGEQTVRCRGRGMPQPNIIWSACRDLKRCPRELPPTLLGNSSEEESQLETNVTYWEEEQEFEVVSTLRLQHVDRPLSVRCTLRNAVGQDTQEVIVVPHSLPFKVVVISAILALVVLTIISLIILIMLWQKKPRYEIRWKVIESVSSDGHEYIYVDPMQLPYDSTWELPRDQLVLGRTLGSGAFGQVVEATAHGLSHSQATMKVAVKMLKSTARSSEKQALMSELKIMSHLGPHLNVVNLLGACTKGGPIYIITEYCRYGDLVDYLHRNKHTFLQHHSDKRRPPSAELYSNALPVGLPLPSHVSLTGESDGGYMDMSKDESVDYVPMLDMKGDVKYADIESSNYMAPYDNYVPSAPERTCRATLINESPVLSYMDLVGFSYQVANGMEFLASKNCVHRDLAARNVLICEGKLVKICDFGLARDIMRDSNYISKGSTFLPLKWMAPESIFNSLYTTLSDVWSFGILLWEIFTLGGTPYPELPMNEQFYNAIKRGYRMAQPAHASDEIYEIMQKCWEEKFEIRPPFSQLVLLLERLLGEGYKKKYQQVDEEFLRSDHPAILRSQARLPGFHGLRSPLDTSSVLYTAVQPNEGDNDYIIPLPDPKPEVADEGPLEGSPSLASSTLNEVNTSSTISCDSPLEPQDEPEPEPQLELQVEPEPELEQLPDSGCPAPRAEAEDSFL
# T13 sequence (P10721 26-976 V559D): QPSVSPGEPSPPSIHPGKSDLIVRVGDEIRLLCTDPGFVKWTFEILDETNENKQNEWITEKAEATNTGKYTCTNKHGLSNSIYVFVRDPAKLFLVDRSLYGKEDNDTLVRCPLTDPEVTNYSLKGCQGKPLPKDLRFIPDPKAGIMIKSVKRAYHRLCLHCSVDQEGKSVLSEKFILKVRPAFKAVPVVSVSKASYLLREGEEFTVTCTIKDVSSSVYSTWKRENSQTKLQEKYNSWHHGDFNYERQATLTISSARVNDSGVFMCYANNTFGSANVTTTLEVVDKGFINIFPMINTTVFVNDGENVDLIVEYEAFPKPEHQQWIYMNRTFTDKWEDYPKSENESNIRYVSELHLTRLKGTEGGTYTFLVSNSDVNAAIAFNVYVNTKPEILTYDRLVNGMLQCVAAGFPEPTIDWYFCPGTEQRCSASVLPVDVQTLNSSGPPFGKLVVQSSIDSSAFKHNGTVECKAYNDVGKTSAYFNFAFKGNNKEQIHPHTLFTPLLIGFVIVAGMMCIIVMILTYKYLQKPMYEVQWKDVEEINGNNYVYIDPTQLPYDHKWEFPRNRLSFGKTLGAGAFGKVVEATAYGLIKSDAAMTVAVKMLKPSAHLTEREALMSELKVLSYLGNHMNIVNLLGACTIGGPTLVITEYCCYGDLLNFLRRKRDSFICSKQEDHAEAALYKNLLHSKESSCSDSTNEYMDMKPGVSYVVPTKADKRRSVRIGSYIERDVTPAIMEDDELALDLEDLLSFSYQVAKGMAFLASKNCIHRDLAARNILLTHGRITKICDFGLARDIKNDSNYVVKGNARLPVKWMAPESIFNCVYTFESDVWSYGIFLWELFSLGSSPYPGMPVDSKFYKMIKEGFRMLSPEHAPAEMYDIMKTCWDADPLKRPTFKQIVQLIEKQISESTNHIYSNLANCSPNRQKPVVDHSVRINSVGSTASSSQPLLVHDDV
# T1 sequence (P10721 26-976 D816H): as the sequence (P10721 26-976 V559D) above, with D534V, D791H counted along it
# T8 sequence (P16234 24-1089): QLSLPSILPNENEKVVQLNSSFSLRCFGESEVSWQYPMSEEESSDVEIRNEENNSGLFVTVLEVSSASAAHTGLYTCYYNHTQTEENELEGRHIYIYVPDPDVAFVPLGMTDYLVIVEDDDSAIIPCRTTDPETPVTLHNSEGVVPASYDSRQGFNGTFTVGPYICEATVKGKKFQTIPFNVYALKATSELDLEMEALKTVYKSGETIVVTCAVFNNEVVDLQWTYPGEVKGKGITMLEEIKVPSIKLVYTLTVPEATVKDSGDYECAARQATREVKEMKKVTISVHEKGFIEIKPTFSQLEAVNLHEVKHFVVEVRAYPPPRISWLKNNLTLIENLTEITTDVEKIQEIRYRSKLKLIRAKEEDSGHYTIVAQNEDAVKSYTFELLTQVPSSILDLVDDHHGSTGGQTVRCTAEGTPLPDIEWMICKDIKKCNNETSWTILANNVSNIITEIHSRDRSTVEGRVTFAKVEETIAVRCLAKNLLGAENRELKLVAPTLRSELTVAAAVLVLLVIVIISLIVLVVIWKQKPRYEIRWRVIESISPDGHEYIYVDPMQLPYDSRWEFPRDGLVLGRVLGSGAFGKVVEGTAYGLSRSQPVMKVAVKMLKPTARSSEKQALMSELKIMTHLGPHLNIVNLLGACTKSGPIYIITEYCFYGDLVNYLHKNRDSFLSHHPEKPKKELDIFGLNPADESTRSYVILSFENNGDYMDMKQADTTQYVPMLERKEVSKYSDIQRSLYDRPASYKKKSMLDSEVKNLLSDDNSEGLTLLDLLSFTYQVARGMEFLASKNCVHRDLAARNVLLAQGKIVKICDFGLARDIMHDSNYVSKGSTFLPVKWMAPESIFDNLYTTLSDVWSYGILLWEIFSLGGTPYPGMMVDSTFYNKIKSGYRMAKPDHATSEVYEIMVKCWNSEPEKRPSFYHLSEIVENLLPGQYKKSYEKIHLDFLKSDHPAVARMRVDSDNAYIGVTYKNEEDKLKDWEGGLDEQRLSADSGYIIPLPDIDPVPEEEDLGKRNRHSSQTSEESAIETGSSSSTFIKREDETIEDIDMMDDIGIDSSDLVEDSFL
# T15 sequence (P07949 29-1114): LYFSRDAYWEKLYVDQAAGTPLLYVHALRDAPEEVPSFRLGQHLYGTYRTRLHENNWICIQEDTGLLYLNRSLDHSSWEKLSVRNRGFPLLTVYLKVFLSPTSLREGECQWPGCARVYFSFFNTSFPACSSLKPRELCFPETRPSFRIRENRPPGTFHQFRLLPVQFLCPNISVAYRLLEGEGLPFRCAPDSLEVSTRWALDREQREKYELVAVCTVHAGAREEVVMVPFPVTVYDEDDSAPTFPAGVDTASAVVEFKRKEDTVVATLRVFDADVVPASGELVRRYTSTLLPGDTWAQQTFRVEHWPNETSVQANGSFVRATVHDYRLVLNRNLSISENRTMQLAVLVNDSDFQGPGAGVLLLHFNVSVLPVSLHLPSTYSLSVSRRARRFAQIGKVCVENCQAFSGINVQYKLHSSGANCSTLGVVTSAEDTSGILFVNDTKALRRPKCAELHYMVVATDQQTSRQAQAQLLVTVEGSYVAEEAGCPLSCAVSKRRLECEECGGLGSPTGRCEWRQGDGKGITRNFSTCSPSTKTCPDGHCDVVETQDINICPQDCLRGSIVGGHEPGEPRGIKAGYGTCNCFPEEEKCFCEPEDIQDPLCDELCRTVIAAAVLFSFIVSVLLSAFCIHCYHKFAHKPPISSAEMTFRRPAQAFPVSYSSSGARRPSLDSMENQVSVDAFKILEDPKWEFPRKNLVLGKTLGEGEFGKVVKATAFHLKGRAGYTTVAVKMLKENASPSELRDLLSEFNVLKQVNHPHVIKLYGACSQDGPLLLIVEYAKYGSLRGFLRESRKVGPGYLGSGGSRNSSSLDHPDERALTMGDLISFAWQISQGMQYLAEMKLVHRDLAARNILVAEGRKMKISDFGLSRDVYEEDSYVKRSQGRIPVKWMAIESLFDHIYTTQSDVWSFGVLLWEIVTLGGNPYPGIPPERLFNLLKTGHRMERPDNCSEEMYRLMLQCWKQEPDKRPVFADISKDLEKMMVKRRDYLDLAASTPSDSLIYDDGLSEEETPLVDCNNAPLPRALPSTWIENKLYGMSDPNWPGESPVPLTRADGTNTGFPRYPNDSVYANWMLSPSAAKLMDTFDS
# T2 sequence (P10721 26-976 L576P): as the sequence (P10721 26-976 V559D) above, with D534V, L551P counted along it
# T7 sequence (P07949 29-1114 M918T): as the sequence (P07949 29-1114) above, with M890T counted along it
Structure (SMILES),"% Ctrl, KIT(D816H) ([1]; KIT(D816H)) [% Ctrl]","% Ctrl, KIT(L576P) ([2]; KIT(L576P)) [% Ctrl]","% Ctrl, EGFR(S752-I759del) ([3]; EGFR(S752-I759del)) [% Ctrl]","% Ctrl, ABL1(T315I)-nonphosphorylated ([4]; ABL1(T315I)-nonphosphorylated) [% Ctrl]","% Ctrl, ABL1(T315I)-phosphorylated ([4]; ABL1(T315I)-phosphorylated) [% Ctrl]","% Ctrl, FLT3(D835Y) ([5]; FLT3(D835Y)) [% Ctrl]","% Ctrl, EGFR(G719S) ([6]; EGFR(G719S)) [% Ctrl]","% Ctrl, RET(M918T) ([7]; RET(M918T)) [% Ctrl]","% Ctrl, PDGFRA ([8]; PDGFRA) [% Ctrl]","% Ctrl, EGFR(L858R) ([9]; EGFR(L858R)) [% Ctrl]","% Ctrl, ABL1(H396P)-nonphosphorylated ([10]; ABL1(H396P)-nonphosphorylated) [% Ctrl]","% Ctrl, ABL1(H396P)-phosphorylated ([10]; ABL1(H396P)-phosphorylated) [% Ctrl]","% Ctrl, ABL1(F317I)-nonphosphorylated ([11]; ABL1(F317I)-nonphosphorylated) [% Ctrl]","% Ctrl, ABL1(F317I)-phosphorylated ([11]; ABL1(F317I)-phosphorylated) [% Ctrl]","% Ctrl, PDGFRB ([12]; PDGFRB) [% Ctrl]","% Ctrl, KIT(V559D) ([13]; KIT(V559D)) [% Ctrl]","% Ctrl, ABL1(E255K)-phosphorylated ([14]; ABL1(E255K)-phosphorylated) [% Ctrl]","% Ctrl, RET ([15]; RET) [% Ctrl]",further results
"Cc1cc2c([nH]1)/C=C1\C(=O)Nc3ccc(cc31)-c1ccnn1CCOCCNC2=O [Ex.39, [19a(20)Z]-2-methyl-6,7,9,10-tetrahydro-1H-15,17-(ethanediylidene)pyrazolo[1,5-d]dipyrrolo[3,4-h:2′,3′-k][1,4,14]oxadiazacyclohexadecine-4,19(5H,18H)-dione]",83,100,80,95,26,96,77,97,89,64,74,82,100,64,91,99,72,85,
"Cc1cc2c([nH]1)/C=C1\C(=O)Nc3cnc(cc31)-c1cn[nH]c1CNCCN(C)C2=O [Ex. 55, [3a(4)Z]-6,9-dimethyl-9,10,11,12,13,14-hexahydro-17,1-(azenometheno)pyrazolo[4,3-m]dipyrrolo[3,2-f:3′,4′-i][1,4]diazacyclopentadecine-3,8(2,5H)-dione]",,,,,,,,,,,,,,,,,,,"% Ctrl, KIT(D816H) ([1]; target KIT(D816H)): 18 % Ctrl; % Ctrl, KIT(L576P) ([2]; target KIT(L576P)): 17 % Ctrl; % Ctrl, EGFR(S752-I759del) ([3]; target EGFR(S752-I759del)): 84 % Ctrl; % Ctrl, ABL1(T315I)-nonphosphorylated ([4]; target ABL1(T315I)-nonphosphorylated): 1.6 % Ctrl; % Ctrl, ABL1(T315I)-phosphorylated ([4]; target ABL1(T315I)-phosphorylated): 2.6 % Ctrl; % Ctrl, FLT3(D835Y) ([5]; target FLT3(D835Y)): 2 % Ctrl; % Ctrl, EGFR(G719S) ([6]; target EGFR(G719S)): 67 % Ctrl; % Ctrl, RET(M918T) ([7]; target RET(M918T)): 0.6 % Ctrl; % Ctrl, PDGFRA ([8]; target PDGFRA): 50 % Ctrl; % Ctrl, EGFR(L858R) ([9]; target EGFR(L858R)): 88 % Ctrl; % Ctrl, ABL1(H396P)-nonphosphorylated ([10]; target ABL1(H396P)-nonphosphorylated): 0.8 % Ctrl; % Ctrl, ABL1(H396P)-phosphorylated ([10]; target ABL1(H396P)-phosphorylated): 3.6 % Ctrl; % Ctrl, ABL1(F317I)-nonphosphorylated ([11]; target ABL1(F317I)-nonphosphorylated): 66 % Ctrl; % Ctrl, ABL1(F317I)-phosphorylated ([11]; target ABL1(F317I)-phosphorylated): 41 % Ctrl; % Ctrl, PDGFRB ([12]; target PDGFRB): 10 % Ctrl; % Ctrl, KIT(V559D) ([13]; target KIT(V559D)): 55 % Ctrl; % Ctrl, ABL1(E255K)-phosphorylated ([14]; target ABL1(E255K)-phosphorylated): 2.6 % Ctrl; % Ctrl, RET ([15]; target RET): 4.2 % Ctrl"
"Cc1cc2c([nH]1)/C=C1\C(=O)Nc3cc(Cl)c(cc31)OCCO[C@@H](C(=O)N[C@@H]1CCNC1)CN(C)C2=O [Ex. 136, [7R,16a(17)Z]-19-chloro-2,5-dimethyl-4,16-dioxo-N-[(3R)-pyrrolidin-3-yl]-4,5,6,7,9,10,15,16-octahydro-1H-12,14-(ethanediylidene)dipyrrolo[3,2-i:3′,4′-l][1,4,7]dioxazacyclopentadecine-7-carboxamide]",48,4.8,95,77,37,2.6,92,25,56,90,11,22,78,66,38,36,36,23,
